Reference: patent publication EP1438307B1, “DERIVATIVES OF 4-(THIO- OR SELENOXANTHENE-9-YLIDENE)-PIPERIDINE OR ACRIDINE AND ITS USE AS A SELECTIVE 5-HT2B RECEPTOR ANTAGONIST” (Biofrontera Pharmaceuticals GmbH, priority 2001, dated 2003)

Legend:
human H1 receptor = target: T1, human H1 receptor (Homo sapiens, UniProt P35367); assay: Cloned human H1 receptor binding assay, [3H]-mepyramine; conditions: COS-7 cells transfected with human H1 receptor, read-out: Receptor Affinity: pK Values H1 receptor (converted)
T1 construct: expressed in transfected cells; host or cells: COS-7 (transient)
T1 sequence (P35367 whole entry): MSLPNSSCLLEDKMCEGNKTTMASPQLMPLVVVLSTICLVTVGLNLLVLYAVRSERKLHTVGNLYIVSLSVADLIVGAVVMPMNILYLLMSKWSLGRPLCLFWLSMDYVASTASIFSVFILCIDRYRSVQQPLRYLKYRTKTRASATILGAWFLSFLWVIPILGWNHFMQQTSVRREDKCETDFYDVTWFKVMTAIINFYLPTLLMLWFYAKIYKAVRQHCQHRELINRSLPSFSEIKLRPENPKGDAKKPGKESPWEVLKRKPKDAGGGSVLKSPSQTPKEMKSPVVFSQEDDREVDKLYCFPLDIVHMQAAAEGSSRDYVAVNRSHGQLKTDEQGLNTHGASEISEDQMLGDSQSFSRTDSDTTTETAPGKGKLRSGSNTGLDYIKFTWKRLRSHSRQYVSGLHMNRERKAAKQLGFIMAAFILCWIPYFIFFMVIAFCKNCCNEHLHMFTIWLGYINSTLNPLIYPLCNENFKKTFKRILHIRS
Experimental: COS-7 cells were transiently transfected with an expression plasmid pCineohH1, pCineohH2, pCineohH3 and pCineohH4 encoding the human Histamine H1, H2. H3 or H4 receptor, respectively. Transfected cells were harvested after 48 h, homogenized in ice-cold 50 mM Na2/potassium phosphate buffer (pH 7.4) and used for radioligand binding studies. Cell homogenates (40 - 50 µg of protein) were incubated for 30 min at 25°C in 50 mM Na2/potassium phosphate buffer (pH 7.4) in 400 µl with the various concentrations of either [^3H]-mepyramine, [^3H]-thiotidine, [^3H]-R-α-Methylhistamine, and [^3H]-pyramilamine for cells expressing recombinant human H1, H2. H3 and H4 receptors, respectively. The nonspecific binding was defined in the presence of 1 µM mianserin. In displacement studies, cell homogenated were incubated either with 1 nM [^3H]-mepyramine, 15 nM [^3H]-thiotidine, 0.5 nM [^3H]-R-α-Methylhistamine, or 15 nM [^3H]-pyramilamine and increasing concentrations of competing ligands. The incubations were stopped by rapid dilution with 3 ml of ice-cold 50 mM Na2/potassium phosphate buffer (pH 7.4). The bound radioactivity was seperated by filatration through Whatman GF/C filters that had been treated with 0.3 % polyethyleneimine. Filters were washed twice in 3 ml of buffer and radioactivity retained on the filters was measured by liquid scinitllation counting. The concentration of 1-methyl-4-(3-ethoxy-9H-thioxanthene-9-ylidene)-piperidine producing 50% inhibition of binding (IC50) was determined using iterative curve fitting techniques.

5-HT2A receptor = target: T2, 5-HT2A receptor (Homo sapiens, UniProt P28223); assay: 5-HT2A receptor binding, [3H]ketanserin competition (counter screen); conditions: read-out: Receptor Affinity: pK Values 5-HT2A receptor (converted)
T2 construct: expressed in transfected cells; host or cells: HEK293
T2 sequence (P28223 whole entry): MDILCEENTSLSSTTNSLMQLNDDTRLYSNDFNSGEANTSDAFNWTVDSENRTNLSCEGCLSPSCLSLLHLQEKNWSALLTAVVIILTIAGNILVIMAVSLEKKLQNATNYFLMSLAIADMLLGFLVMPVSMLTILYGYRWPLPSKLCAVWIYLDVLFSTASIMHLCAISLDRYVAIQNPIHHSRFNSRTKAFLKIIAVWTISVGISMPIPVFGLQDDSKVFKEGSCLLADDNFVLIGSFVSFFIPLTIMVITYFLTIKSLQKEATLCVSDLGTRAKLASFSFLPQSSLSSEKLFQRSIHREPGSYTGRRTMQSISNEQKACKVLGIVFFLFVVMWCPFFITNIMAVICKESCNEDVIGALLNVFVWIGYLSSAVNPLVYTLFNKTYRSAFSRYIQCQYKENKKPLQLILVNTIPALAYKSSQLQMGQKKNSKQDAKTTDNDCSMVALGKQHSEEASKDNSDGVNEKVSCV
Experimental: 5-HT2A receptors were labelled with [^3H]ketanserin in human cortex, in HEK293 cells expressing a cloned human 5-HT2A receptor and in HEK293 cells expressing the rat 5-HT2A receptor. For competition binding studies the ligand concentration was approximately 0.1 nM. For saturation binding studies concentrations of radioligand ranged from 0.01 nM to 2.0 nM. Assays were conducted in 0.5 ml of assay buffer (50 mM Tris-HCl, 4 mM calcium chloride, 0.1 % by weight ascorbic acid) (pH 7.4 at 4°C). Non-specifc binding was defined with […] unlabelled ketanserin. After a 60 min incubation at 32°C, membranes were harvested onto filters treated with 0.1 % by weight of polyethylenimine and the bound radioactivity was determined. Competition radioligand binding data was analyzed using a four parameter logistic equation and iterative curve-fitting techniques to obtain estimates of the IC50 and Hill slope. Kd values, determined from saturation binding studies were then used to calculate inhibition dissociation constants (Ki).

human 5-HT2B receptor = target: T3, human 5-HT2B receptor (Homo sapiens, UniProt P41595); assay: Cloned human 5-HT2B receptor binding assay, [3H]-5HT; conditions: HEK 293 cells transfected with human 5-HT2B receptor, read-out: Receptor Affinity: pK Values 5HT2B receptor (converted)
T3 construct: expressed in transfected cells; host or cells: HEK 293 (transient)
T3 sequence (P41595 whole entry): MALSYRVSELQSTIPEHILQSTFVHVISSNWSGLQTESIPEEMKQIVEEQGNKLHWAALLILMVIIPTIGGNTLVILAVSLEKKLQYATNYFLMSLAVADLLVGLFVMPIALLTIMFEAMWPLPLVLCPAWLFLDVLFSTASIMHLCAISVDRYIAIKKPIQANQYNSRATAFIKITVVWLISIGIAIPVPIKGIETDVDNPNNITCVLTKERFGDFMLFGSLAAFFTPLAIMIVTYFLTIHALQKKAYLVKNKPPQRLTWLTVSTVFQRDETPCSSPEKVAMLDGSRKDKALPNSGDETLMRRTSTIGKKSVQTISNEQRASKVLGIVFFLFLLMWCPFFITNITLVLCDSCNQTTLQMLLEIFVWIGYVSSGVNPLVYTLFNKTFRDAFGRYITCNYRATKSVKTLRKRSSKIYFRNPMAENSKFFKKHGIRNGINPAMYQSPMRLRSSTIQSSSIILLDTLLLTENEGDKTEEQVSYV
Experimental: The following describes an in vitro binding assay utilizing cloned 5-HT2B receptors radiolabelled with [^3H]-5HT. HEK 293 cells transiently transfected with an expression plasmid pXMD1-hu2B encoding the human 5-HT2B receptor (see Schmuck et al., FEBS Lett., 1994, 342, 85-90) were used as described previously (Schmuck et al., Eur. J. Pharmacol., 1996, 8, 959-967). Two days after transfection cells were harvested, pelleted at 500g for 5 min at 4°C, gently resuspended in ice-cold buffer1 (50 mM TRIS pH 7.7, 4 mM CaCl2) and homogenized using a Polytron PT 1200 tissue homogenizer (position 6 for 30 s). Cells were pelleted at 50,000g, 4°C for 10 min, washed with buffer1 and pelleted again. The final pellet was resuspended in incubation buffer (50 mM TRIS pH 7.7, 4 mM CaCl2, 10 µM pargyline and 0.1 % by weight ascorbic acid). The binding assay consisted of 300 µl of membrane suspension (protein concentration = 0.3 to 0.5 mg/ml), 150 µl of competing drug and 50 µl of [^3H]5-HT at a final concentration of 4 to 5 nM. The mixture was incubated at 37°C for 30 min and the assay terminated by rapid filtration and two washing steps with 5 ml of cold 20 mM Tris-HCl pH = 7.5, and 154 mM NaCl over Whatman GFB filters. Filters were counted by liquid scintillation. Non-specific binding was determined in the presence of an excess of 5-HT (100 µM). Bound radioligand represented less than 1 % of free radioligand. In competition experiments, specific binding represented about 60 % of total binding. Results expressed as pKi values are shown in Table 1 Human 5-HT2B receptors were labelled in HEK293 cells as described above, except that the radioligand was [^3H]-5HT and that the assay buffer contained pargyline in a concentration of […] and 0.1 % by weight of ascorbic acid. For competition binding studies the radioligand concentration was approximately 0.4 nM while for saturation binding studies the concentration of [^3H]-5HT ranged from 0.05 to 8 nM. Non-specific binding was defined with […]. Incubations were for 120 min at 4°C. Competition radioligand binding data was analyzed using a four parameter logistic equation and iterative curve-fitting techniques to obtain estimates of the IC50 and Hill slope. Kd values, determined from saturation binding studies were then used to calculate inhibition dissociation constants (Ki).

5-HT2C receptor = target: T4, 5-HT2C receptor (Homo sapiens, UniProt P28335); assay: 5-HT2C receptor binding, [3H]mesulergine competition (counter screen); conditions: read-out: Receptor Affinity: pK Values 5NT2C receptor (converted)
T4 construct: expressed in transfected cells; host or cells: Cos-7
T4 sequence (P28335 33-458): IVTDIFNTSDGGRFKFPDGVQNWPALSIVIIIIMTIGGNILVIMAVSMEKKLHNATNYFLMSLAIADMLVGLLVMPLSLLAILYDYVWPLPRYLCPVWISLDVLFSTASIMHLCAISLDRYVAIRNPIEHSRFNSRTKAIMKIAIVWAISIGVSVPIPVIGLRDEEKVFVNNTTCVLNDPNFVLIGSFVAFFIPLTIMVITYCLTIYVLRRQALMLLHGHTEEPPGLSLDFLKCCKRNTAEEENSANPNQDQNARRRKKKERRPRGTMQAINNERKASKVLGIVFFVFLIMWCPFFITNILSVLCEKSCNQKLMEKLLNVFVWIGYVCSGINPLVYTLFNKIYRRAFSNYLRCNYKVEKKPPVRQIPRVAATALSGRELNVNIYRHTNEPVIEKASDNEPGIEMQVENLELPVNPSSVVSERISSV
Experimental: 5-HT2C receptors were labelled in choroid plexus, Cos-7 cells expressing the human 5-HT2C receptor and in NIH-3T3 expressing the […]. Assays were conducted as described for the 5-HT2A receptor except that the radioligand was [^3H]mesulergine. The radioligand concentration for competition studies was approximately 0.2 nM while for saturation binding studies the concentration ranged from 0.1 to 18 nM. Non-specific binding was defined with 10 µM unlabelled mesulergine. Competition radioligand binding data was analyzed using a four parameter logistic equation and iterative curve-fitting techniques to obtain estimates of the IC50 and Hill slope. Kd values, determined from saturation binding studies were then used to calculate inhibition dissociation constants (Ki).

Row | Structure (SMILES) | Ki (human H1 receptor) | Ki (5-HT2A receptor) | Ki (human 5-HT2B receptor) | Ki (5-HT2C receptor)
1 | CCOc1ccc2c(c1)Nc1ccccc1C2=C1CCN(C)CC1 [3-Ethoxy-9-(1-methyl-piperidine-4-ylidene)-9,10-dihydro-acridine] | 29.5 nM | 1.17 nM | 0.741 nM | 37.2 nM
2 | CCOc1ccc2c(c1)Sc1cccc(O)c1C2=C1CCN(C)CC1 [4-(6-Ethoxy-1-hydroxy-thioxanthen-9-yliden)-1-methyl-piperidine] | 36.3 nM | 1.51 nM | 0.0115 nM | 13.8 nM
3 | CCOc1ccc2c(c1)Sc1cccc(OC)c1C2=C1CCN(C)CC1 [4-(6-Ethoxy-1-methoxy-thioxanthen-9-yliden)-1-methyl-piperidine] | 3.72 nM | 1.02 nM | 0.0447 nM | 17 nM
4 | CC(C)c1ccc2c(c1)Sc1cccc(O)c1C2=C1CCN(C)CC1 [4-(6-Isopropyl-1-hydroxy-thioxanthen-9-yliden)-1-methyl-piperidine] | 35.5 nM | 0.776 nM | 0.12 nM | 30.2 nM
5 | COc1cccc2c1C(=C1CCN(C)CC1)c1ccc(C(C)C)cc1S2 [4-(6-Isopropyl-1-methoxy-thioxanthen-9-yliden)-1-methyl-piperidine] | 10.5 nM | 0.741 nM | 0.17 nM | 16.2 nM
6 | COc1ccc2c(c1)Sc1cccc(OC)c1C2=C1CCN(C)CC1 [4-(6-Methoxy-1-methoxy-thioxanthen-9-yliden)-1-methyl-piperidine] | 0.129 nM | 0.0427 nM | 0.00871 nM | 1.55 nM
